“And” between values parts separate entries of the source, which are not always exact repeats. Equal entries are not always repeated.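 1) Cells in 96-well plates. 2) Compound, 48 h, 5 concentrations. 3) Linear interpolation between surrounding doses. 4) Unreached endpoint = highest concentration. GI50: concentration for 50% inhibition of growth. TGI: total growth inhibition.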
Columns and labels:
Assay in all cases: DTP human tumour cell line panel, 48 h
[1] = system: HS 578T breast
[2] = system: KM12 colon
[3] = system: M14 melanoma
[4] = system: MOLT-4 leukemia
[5] = system: RPMI-8226 leukemia
[6] = system: T-47D breast

C=C1CC[C@@H]2[C@](C)(COC(C)=O)[C@H](OC(C)=O)CC[C@@]2(C)[C@@H]1CC(Nc1ccc(S(=O)(=O)Nc2ncccn2)cc1)C1=CCOC1=O (stereo not given in full)
GI50 [1]: 3.54 µM | TGI [1]: 24.4 µM | GI50 [2]: 2.33 µM | TGI [2]: 5.54 µM | GI50 [3]: 1.44 µM | TGI [3]: 3.98 µM | GI50 [4]: 2.27 µM | TGI [4]: 8.37 µM | GI50 [5]: 0.541 µM | TGI [5]: 3.12 µM | GI50 [6]: 2 µM | TGI [6]: 5.46 µM

Fc1ccc(-c2nn3ncccc3c2-c2ccnc(Nc3ccc4c(c3)OCCO4)n2)cc1
GI50 [1]: 2.15 µM | TGI [1]: > 23.2 µM | GI50 [2]: 5.32 µM | TGI [2]: 19.8 µM | GI50 [3]: 7.81 µM | TGI [3]: > 25 µM | GI50 [4]: 4.8 µM | TGI [4]: > 22.4 µM | GI50 [5]: 7.85 µM | TGI [5]: > 25 µM | GI50 [6]: 3.95 µM | TGI [6]: 17.9 µM

Nc1nc(-c2cccc(Cl)c2)c(-c2ccc3ncccc3n2)s1
GI50 [1]: > 25 µM | TGI [1]: > 25 µM | GI50 [2]: > 25 µM | TGI [2]: > 25 µM | GI50 [3]: > 25 µM | TGI [3]: > 25 µM | GI50 [4]: > 25 µM | TGI [4]: > 25 µM | GI50 [5]: > 25 µM | TGI [5]: > 25 µM | GI50 [6]: 5.88 µM | TGI [6]: > 25 µM

NCCCn1c2c(c3ccc([N+](=O)[O-])cc3c1=O)C(=O)c1cc(Br)ccc1-2
GI50 [1]: 0.105 µM | GI50 [2]: 0.0834 µM and 0.0185 µM | TGI [2]: 0.353 µM and 0.191 µM | GI50 [3]: 0.185 µM | TGI [3]: 0.435 µM and 0.165 µM | GI50 [6]: 0.346 µM and 0.169 µM | TGI [6]: 1.49 µM

C=C[C@H]1C[C@@H]2C[C@@H]3[C@H]4C/C=C\C(=O)NCCCC5NC(=O)C(=C(O)/C=C/[C@@H]4CC(=O)[C@H]3[C@@H]2[C@H]1C)C5=O (stereo not given in full)
GI50 [1]: 0.191 µM | TGI [1]: 0.423 µM | GI50 [2]: 1.74 µM | TGI [2]: 3.33 µM | GI50 [3]: 0.253 µM | TGI [3]: 0.822 µM | GI50 [5]: 1.5 µM | TGI [5]: 3.68 µM | GI50 [6]: 1.65 µM | TGI [6]: 3.52 µM

CO[C@H]1C=C[C@@]23c4cc5c(cc4CO[C@]2(O)CN(C)[C@H]3C1)OCO5
TGI [1]: > 100 µM | TGI [2]: > 100 µM | TGI [3]: > 100 µM | TGI [4]: > 100 µM | TGI [5]: > 100 µM | TGI [6]: > 100 µM

C=C(C)C1CCC2(C(=O)O)CCC3(C)C(CCC4C5(C)CCC(OC(=O)NCc6ccccc6)C(C)(C)C5CCC43C)C12 (stereo not given)
GI50 [1]: 3.62 µM | TGI [1]: > 100 µM | GI50 [2]: 2.23 µM | TGI [2]: 12.2 µM | GI50 [3]: 5.98 µM | TGI [3]: > 100 µM | GI50 [4]: 2.79 µM | TGI [4]: > 100 µM | GI50 [5]: 0.757 µM | TGI [5]: 6.49 µM | GI50 [6]: 3.19 µM | TGI [6]: > 100 µM

COc1ccc(-c2nnc(COc3ccc(NC(=O)Nc4ccc(Cl)c(C(F)(F)F)c4)cc3F)o2)cc1
GI50 [1]: 3.26 µM | TGI [1]: 18.1 µM | GI50 [2]: 2.31 µM | TGI [2]: 11 µM | GI50 [3]: 3.13 µM | TGI [3]: 16.5 µM | GI50 [4]: 2.39 µM | TGI [4]: 11.6 µM | GI50 [5]: 1.53 µM | TGI [5]: 5 µM | GI50 [6]: 3.02 µM | TGI [6]: 14.5 µM

CC(C)(C)c1cc(NC(=O)Cc2ccc(-c3cnc4cc(-c5cnn(CCN6CCOCC6)c5)ccc4n3)cc2)no1
GI50 [1]: 0.132 µM and 0.235 µM and 0.0377 µM | TGI [1]: 1.56 µM and 2.88 µM and > 2.8 µM | TGI [2]: 50 µM and > 100 µM and > 3 µM | GI50 [3]: 0.202 µM and 0.37 µM and 0.0419 µM | TGI [3]: 50 µM and > 100 µM and > 3 µM | GI50 [4]: 0.26 µM and 0.429 µM and 0.115 µM | TGI [4]: 50 µM and > 100 µM and > 3 µM | GI50 [5]: 0.249 µM and 0.609 µM and 0.0985 µM | TGI [5]: 50 µM and > 100 µM and > 3 µM | GI50 [6]: 0.853 µM and 0.822 µM and 0.107 µM | TGI [6]: 50 µM and > 100 µM and > 3 µM

Cn1cnc([N+](=O)[O-])c1[Se]c1nc(N)nc2c1ncn2C1OC(CO)C(O)C1O (stereo not given)
TGI [1]: > 100 µM | TGI [2]: > 100 µM | TGI [3]: > 100 µM | TGI [4]: > 100 µM | TGI [5]: > 100 µM | TGI [6]: > 100 µM

COc1ccccc1Cn1cc2c(c1-c1ccccc1)CCc1cnoc1-2
GI50 [1]: 1.45 µM | TGI [1]: 6.32 µM | GI50 [2]: 1.76 µM | TGI [2]: > 100 µM | GI50 [3]: 2.06 µM | TGI [3]: 17.3 µM | GI50 [4]: 3.42 µM | TGI [4]: > 100 µM | GI50 [5]: 3.78 µM | TGI [5]: > 100 µM | GI50 [6]: 4.49 µM | TGI [6]: > 100 µM

Cc1ccc(NC(=O)c2sc3nc(C)c(C(O)c4ccccc4)cc3c2N)cc1 (stereo not given)
GI50 [1]: 0.327 µM | TGI [1]: 10.3 µM | GI50 [2]: 0.452 µM | TGI [2]: > 61.9 µM | GI50 [3]: 0.284 µM | TGI [3]: 26.1 µM | GI50 [4]: 0.643 µM | TGI [4]: > 100 µM | GI50 [5]: 0.421 µM | TGI [5]: 43.3 µM | GI50 [6]: 0.471 µM | TGI [6]: > 58.3 µM

COC(=O)c1c(C)[nH]c(/C=C2\N=C(c3ccc[nH]3)C=C2OC)c1C
GI50 [1]: 0.693 µM | GI50 [2]: 0.0938 µM | TGI [2]: 5.67 µM | GI50 [3]: 0.209 µM | TGI [3]: 0.619 µM | GI50 [4]: 0.0495 µM | TGI [4]: > 36.5 µM | GI50 [5]: 0.856 µM | TGI [5]: 4.98 µM | GI50 [6]: 0.816 µM | TGI [6]: 3.99 µM

O=C(O)[C@@H]1CCCCN1Cc1cc2cc3c(cc2c2cc(OCc4ccccc4)ccc12)OCO3
GI50 [1]: 2.29 µM | TGI [1]: 6.94 µM | GI50 [2]: 4.24 µM | TGI [2]: 25.5 µM | GI50 [3]: 16.5 µM | TGI [3]: 30.4 µM | GI50 [4]: 63.3 µM | TGI [4]: > 100 µM | GI50 [5]: 24 µM | TGI [5]: 77.4 µM | GI50 [6]: 2.97 µM | TGI [6]: 29.5 µM

CC(C)(C)c1ccc(O)c(CN(Cc2cc(C(C)(C)C)ccc2O)c2ccccc2)c1
TGI [1]: 42 µM | TGI [2]: 66.7 µM | TGI [3]: 28.2 µM | TGI [4]: 37.8 µM | TGI [5]: 47.7 µM | TGI [6]: 42.8 µM

COc1ccc2nc3cc(Cl)ccc3c(NCCN)c2c1
GI50 [2]: 1.67 µM | TGI [2]: 3.46 µM | GI50 [3]: 1.82 µM | TGI [3]: 3.44 µM | GI50 [4]: 1.25 µM | TGI [4]: 3.68 µM | GI50 [5]: 2.04 µM | TGI [5]: 5.07 µM | GI50 [6]: 1.83 µM | TGI [6]: 3.59 µM

CC1(C)N=C(N)N=C(N)N1c1ccc(OCc2ccc(S(=O)(=O)F)c(Cl)c2)c(Cl)c1
GI50 [2]: 3.35 µM | TGI [2]: > 100 µM | GI50 [3]: 1.52 µM | TGI [3]: > 100 µM | GI50 [4]: 3.59 µM | TGI [4]: > 100 µM | GI50 [5]: > 100 µM | TGI [5]: > 100 µM | GI50 [6]: 77.7 µM | TGI [6]: > 100 µM

Cn1c2ccccc2c2c3[nH]c(=O)[nH]c(=O)c3c3c4ccccc4n(C)c3c21
GI50 [1]: 2.44 µM | TGI [1]: 8.21 µM | GI50 [2]: 2.51 µM | TGI [2]: > 100 µM | GI50 [3]: 2.43 µM | TGI [3]: > 100 µM | GI50 [6]: 2.05 µM | TGI [6]: 27.1 µM

C/C(=N\Nc1ccc(Cl)cn1)c1ccccn1
GI50 [1]: 0.616 µM | TGI [1]: > 73.8 µM | GI50 [2]: 0.41 µM | TGI [2]: 18.1 µM | GI50 [4]: 0.026 µM | TGI [4]: > 42 µM | GI50 [5]: 0.0572 µM | TGI [5]: 12.3 µM | GI50 [6]: 0.0372 µM | TGI [6]: > 38.8 µM

COC(=O)C12C3C4C1C1C2C3C41NC(=O)c1csc([C@@H](C[C@H](C(C)C)N(C)C(=O)[C@@H](NC(=O)[C@H]2CCCCN2C)C2CC2)OC(C)=O)n1 (stereo not given in full)
GI50 [1]: 0.00773 µM | TGI [1]: > 33.3 µM | GI50 [2]: 0.00818 µM | TGI [2]: > 33.3 µM | GI50 [3]: 0.0253 µM | GI50 [4]: 0.00729 µM | TGI [4]: > 33.3 µM | GI50 [5]: 0.00696 µM | TGI [5]: > 33.3 µM
